pIC50: −log10 of the molar value. Structures can show the parent of a compound that is named as a salt. Where two headings read alike, the source gives them in different places.
Legend:
[1] = Oral bioavailability in dogs (oral vs intravenous AUC); format: in vivo, dog (female beagles); details: dog, plasma, 10 mg/kg, read-out: % Oral Availability
Experimental: Oral bioavailability was determined by comparing the dose corrected areas under the plasma-concentration time curve (AUC) to infinity for the each tested compound, given orally and intravenously in dogs. […] One dog received this solution at an infusion rate of 0.1 mL/min for 20 minutes. The other dog received a 0.2 mL/in infusion for 10 minutes. […] The plasma was separated within 10 minutes of blood collection and was stored frozen. The plasma concentration of compound was then determined for these IV infusions. […] The plasma concentration of compound was determined for this oral administration. The samples were assayed for intact adenosine kinase inhibitor by high performance liquid chromatography (HPLC). An internal standard was added to each test sample and standard sample. Each was then extracted with 10 volumes of 1% v/v dimethylsulfoxide in acetonitrile. […] The dried residue was reconstituted in mobile phase and the contents were analyzed for the adenosine kinase inhibitor (AKI) on HPLC. […] Pharmacokinetic parameters were calculated from the plasma concentration vs. time data, using standard non-compartmental methods. […] et al., Pharmacokinetics., 2[…]. (1983).

[2] = system: female SA rats; experiment: Liver toxicity (serum liver enzymes and total bilirubin); format: in vivo, rat; details: iv infusion 2 x 37.5 μmole/kg, 12 hours after second dose
Experimental: Female SA rats (150-200 g) were anesthetized with halothane and cannulated via the internal jugular vein. The animals wee allowed to recover for 3 days. […] Twelve hours later, an additional 37.5 μmole/kg was infused over 20 minutes (total dose=75 μmole/kg). […] Liver enzymes (serum glutamic-oxaloacetic transaminase (SGOT), serum glutamic-pyruvic transaminase (SGPT), alkaline phosphatase) and total bilirubin in the serum samples were dermined by a commercial laboratory.

[3] = biological target: T1, partially purified pig heart adenosine kinase (Sus scrofa, UniProt A0A5G2R0F5); experiment: Adenosine kinase (AK) inhibition; format: biochemical
T1 construct: partially purified pig heart adenosine kinase; from tissue; host or cells: pig heart
Experimental: Adenosine kinase activity was measured essentially as described by Yamada et al. Biochim. Biophys. Acta 660, 36-43 […] with a few minor modifications. Assay mixtures contained 50 mM TRIS-maleate buffer, pH 7.0, 0.1% BSA, 1 mM ATP 1 mM MgCl2, 0.5 μM [U-^14 C]adenosine (400-600 mCi/mmol) and varying duplicate concentrations of inhibitor. The reactions were initiated by addition of approximately 0.1 μU partially purified pig heart adenosine kinase, where one unit is defined as that amount of enzyme required to phosphorylate 1 μmol adenosine per minute. The reactions were incubated for 20 minutes at 37° C. The assay was quenched upon spotting 30 μL aliquots onto 2 cm^2 pieces of Whatman DE81 anion exchange paper. The paper squares were washed for 3 minutes in 6 L distilled/deionized water to remove the unreacted adenosine. […] The amount of ^14 C-AMP was quantified by scintillation counting.

[4] = system: male SA rats; experiment: Anticonvulsant activity, maximal electroshock (MES) model, suppression of hind limb tonic extension; format: in vivo; details: Rattus norvegicus, 1 h
[5] = system: carrageenan-induced paw swelling in rats; experiment: Anti-inflammatory activity, carrageenan paw swelling; format: in vivo, rat; details: po, 10 mg/kg, paw swelling 3 hours after carrageenan, vs vehicle
Experimental: Carrageenan (Type λ) was suspended in sterile PBS at 1% (w/v), autoclaved for 30 minutes, and stored at room temperature. Rats were pretreated with vehicle or AK inhibitor (10 mg/kg) by oral gavage or i.p. administration and the volume of the left hind paw was measured using a water displacement plethysmometer (Stoelting Co., Wood Dale, Ill.). One hour after oral treatment or 30 minutes after i.p. treatment, the rats were briefly anesthetized, and 0.1 ml of the carrageenan solution was injected subcutaneously into the planar surface of the left hind paw. The ensuing paw swelling was measured by plethysmometry after 3 hours. The paw volume in millileters was subtracted from the pre-injection paw volume. Data are presented as the percent inhibition of paw swelling in AK inhibitor treated animals, compared to vehicle treated control animals.

[6] = ip, one hour before seizure testing, >5 or <5 = fewer or more than 50% inhibited in initial screen at 5 mg/kg ip, read-out: Anticonvulsant ED50 (MES), ip
[7] = ip, one hour before seizure testing, >5 or <5 = fewer or more than 50% inhibited in initial screen at 5 mg/kg ip
[8] = po, fasted, one hour before seizure testing, read-out: Anticonvulsant ED50 (MES), po

T1 sequence (A0A5G2R0F5 1-362): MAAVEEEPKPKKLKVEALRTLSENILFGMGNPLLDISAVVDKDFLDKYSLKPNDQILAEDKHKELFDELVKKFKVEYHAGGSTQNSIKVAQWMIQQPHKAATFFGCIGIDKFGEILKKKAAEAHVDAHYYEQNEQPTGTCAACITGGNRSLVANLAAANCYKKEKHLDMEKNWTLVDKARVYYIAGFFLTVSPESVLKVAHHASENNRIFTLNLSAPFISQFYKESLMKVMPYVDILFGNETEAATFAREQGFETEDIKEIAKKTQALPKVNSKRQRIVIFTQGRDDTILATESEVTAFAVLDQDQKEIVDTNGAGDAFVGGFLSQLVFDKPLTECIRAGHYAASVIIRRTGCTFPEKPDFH

| Structure (SMILES) | pIC50 [3] | ED50 at 5 mg/kg [4, 7] [mg/kg] | ED50 [4, 8] [mg/kg] | also measured |
| --- | --- | --- | --- | --- |
| COc1ccc(-c2cn([C@@H]3O[C@H](C)[C@@H](O)[C@H]3O)c3ncnc(Nc4ccc(C#N)cc4)c23)cc1 [#27, 4-N-(4-cyanophenyl)amino-5-(4-methoxyphenyl)-7-(5-deoxy-1-β-D-ribofuranosyl)pyrrolo[2,3-d]pyrimidine] | – | – | – | bioavailability [1]: 100% |
| C[C@H]1O[C@@H](n2cc(I)c3c(N)ncnc32)[C@H](O)[C@@H]1O [REF. A] | – | – | – | SGPT [2]: 76 IU/L; Total Bilirubin [2]: 0.76 mg/dL |
| NC[C@H]1O[C@@H](n2nc(Br)c3c(N)ncnc32)[C@H](O)[C@@H]1O [REF. B, 4amino-1-(5-amino-5-deoxy-1-D-ribofuranosyl)-3-bromopyrazolo[3,4d]pyrimidne HCL] | – | – | – | SGOT [2]: 100 IU/L; SGPT [2]: 41 IU/L; Total Bilirubin [2]: 0.30 mg/dL |
| C[C@H]1O[C@@H](n2cc(-c3ccccc3)c3c(Nc4cc(F)cc(F)c4)ncnc32)[C@H](O)[C@@H]1O [compound 10] | 9.00 | – | – | ED50 [4, 6]: 5 mg/kg |
| C[C@H]1O[C@@H](n2cc(-c3ccccc3)c3c(Nc4ccc(F)c(F)c4)ncnc32)[C@H](O)[C@@H]1O [compound 11] | 8.40 | 5 | – | – |
| COc1ccc(Nc2ncnc3c2c(-c2ccccc2)cn3[C@@H]2O[C@H](C)[C@@H](O)[C@H]2O)cc1 [compound 13] | 8.22 | – | > 10 | ED50 [4, 6]: 2 mg/kg |
| C[C@H]1O[C@@H](n2cc(-c3cccc(Cl)c3)c3c(Nc4ccccc4)ncnc32)[C@H](O)[C@@H]1O [compound 15] | 7.80 | 2.5 | – | ED50 ([4]; po, read-out: Anticonvulsant ED50 (MES), po): > 20 mg/kg |
| Cc1ccc(-c2cn([C@@H]3O[C@H](C)[C@@H](O)[C@H]3O)c3ncnc(Nc4ccccc4)c23)cc1 [compound 16] | 8.05 | 2.3 | 8.7 | – |
| C[C@H]1O[C@@H](n2cc(-c3ccccc3)c3c(Nc4cccc(Cl)c4)ncnc32)[C@H](O)[C@@H]1O [compound 17] | 7.77 | – | – | – |
| Cc1cccc(Nc2ncnc3c2c(-c2ccccc2)cn3[C@@H]2O[C@H](C)[C@@H](O)[C@H]2O)c1 [compound 18] | 8.40 | 3.8 | > 40 | – |
| C[C@H]1O[C@@H](n2cc(-c3ccccc3)c3c(Nc4cccc(F)c4)ncnc32)[C@H](O)[C@@H]1O [compound 19] | 8.70 | 0.4 | > 30 | – |
| C[C@H]1O[C@@H](n2cc(-c3ccccc3)c3c(Nc4ccc(O)cc4)ncnc32)[C@H](O)[C@@H]1O [compound 20] | 7.49 | – | 40 | ED50 [4, 6]: 5.5 mg/kg |
| C[C@H]1O[C@@H](n2cc(-c3ccc(F)cc3)c3c(Nc4ccccc4)ncnc32)[C@H](O)[C@@H]1O [compound 24] | – | 2.5 | 10 | – |
| COc1ccc(-c2cn([C@@H]3O[C@H](C)[C@@H](O)[C@H]3O)c3ncnc(Nc4ccc(F)cc4)c23)cc1 [compound 25] | 8.00 | 3.1 | – | – |
| CCOc1ccc(Nc2ncnc3c2c(-c2ccccc2)cn3[C@@H]2O[C@H](C)[C@@H](O)[C@H]2O)cc1 [compound 28] | 8.40 | < 5 | – | Carrageenan Paw (% inh) [5]: 31.0% |
| CCc1ccc(Nc2ncnc3c2c(-c2ccccc2)cn3[C@@H]2O[C@H](C)[C@@H](O)[C@H]2O)cc1 [compound 29] | 7.70 | > 5 | – | – |
| C[C@H]1O[C@@H](n2cc(-c3cccc([N+](=O)[O-])c3)c3c(Nc4ccc(F)cc4)ncnc32)[C@H](O)[C@@H]1O [compound 30] | 7.55 | > 5 | – | – |
| COc1ccc(-c2cn([C@@H]3O[C@H](C)[C@@H](O)[C@H]3O)c3ncnc(Nc4ccc(C(N)=O)cc4)c23)cc1 [compound 31] | 8.70 | > 5 | – | Carrageenan Paw (% inh) [5]: -5.8% |

| Structure (SMILES) | pIC50 [3] | ED50 at 5 mg/kg [4, 7] [mg/kg] | ED50 [4, 8] [mg/kg] | also measured |
| --- | --- | --- | --- | --- |
| CC(=O)Nc1ccc(Nc2ncnc3c2c(-c2ccccc2)cn3[C@@H]2O[C@H](C)[C@@H](O)[C@H]2O)cc1 [compound 32] | 9.30 | 5 | > 5 | – |
| C[C@H]1O[C@@H](n2cc(-c3ccccc3)c3c(Nc4ccc(S(N)(=O)=O)cc4)ncnc32)[C@H](O)[C@@H]1O [compound 34] | 8.30 | 5 | – | Carrageenan Paw (% inh) [5]: -0.2% |
| C[C@H]1O[C@@H](n2cc(-c3ccccc3)c3c(NCc4ccccc4)ncnc32)[C@H](O)[C@@H]1O [compound 38] | 7.52 | – | – | ED50 [4, 6]: > 5 mg/kg |
| CSc1ccc(Nc2ncnc3c2c(-c2ccccc2)cn3[C@@H]2O[C@H](C)[C@@H](O)[C@H]2O)cc1 [compound 40] | 8.70 | 5 | > 10 | – |
| C[C@H]1O[C@@H](n2c(Br)c(-c3ccccc3)c3c(Nc4ccc(F)cc4)ncnc32)[C@H](O)[C@@H]1O [compound 41] | 7.38 | > 5 | – | – |
| C[C@H]1O[C@@H](n2cc(-c3ccccc3)c3c(Nc4ccc(N)cc4)ncnc32)[C@H](O)[C@@H]1O [compound 43] | 8.52 | < 5 | – | – |
| C[C@H]1O[C@@H](n2nc(-c3ccccc3)c3c(Nc4ccccc4)ncnc32)[C@H](O)[C@@H]1O [compound 86] | 8.35 | 12.3 | > 20 | – |
| [N-]=[N+]=NC[C@H]1O[C@@H](n2nc(-c3ccccc3)c3c(Nc4ccccc4)ncnc32)[C@H](O)[C@@H]1O [compound 87] | 8.35 | 2.31 | > 2.3 | – |
| OC[C@H]1O[C@@H](n2nc(-c3ccccc3)c3c(Nc4ccccc4)ncnc32)[C@H](O)[C@@H]1O [compound 88] | 8.30 | – | > 2.6 | ED50 [4, 6]: 2.62 mg/kg |
| COc1ccc(Nc2ncnc3c2c(-c2ccccc2)nn3[C@@H]2O[C@H](C)[C@@H](O)[C@H]2O)cc1 [compound 89] | 7.77 | 5 | – | – |
| COc1ccc(Nc2ncnc3c2c(-c2ccccc2)nn3[C@@H]2O[C@H](CN=[N+]=[N-])[C@@H](O)[C@H]2O)cc1 [compound 90] | 8.10 | > 3.4 | – | – |
| C[C@H]1O[C@@H](n2nc(-c3ccccc3)c3c(Nc4ccc(Cl)cc4)ncnc32)[C@H](O)[C@@H]1O [compound 91] | – | – | – | pIC50 ([3]; read-out: AK Inhibition (IC50), 0.5 μM [U-14C]adenosine, pH 7.0, 37° C., 20 minutes): 7.96 |
| [N-]=[N+]=NC[C@H]1O[C@@H](n2nc(-c3ccccc3)c3c(Nc4ccc(Cl)cc4)ncnc32)[C@H](O)[C@@H]1O [compound 92] | 7.77 | – | – | – |
| Cc1ccc(-c2nn([C@@H]3O[C@H](CN=[N+]=[N-])[C@@H](O)[C@H]3O)c3ncnc(Nc4ccccc4)c23)cc1 [compound 93] | 7.70 | > 5 | – | – |
| COc1ccc(-c2nn([C@@H]3O[C@H](CN=[N+]=[N-])[C@@H](O)[C@H]3O)c3ncnc(Nc4ccccc4)c23)cc1 [compound 94] | 8.52 | > 5 | – | – |
| COc1ccc(-c2nn([C@@H]3O[C@H](CN=[N+]=[N-])[C@@H](O)[C@H]3O)c3ncnc(Nc4ccc(C)cc4)c23)cc1 [compound 95] | – | > 5 | – | – |
| [N-]=[N+]=NC[C@H]1O[C@@H](n2nc(-c3ccc(Cl)cc3)c3c(Nc4ccccc4)ncnc32)[C@H](O)[C@@H]1O [compound 96] | 7.82 | > 5 | – | – |
| [N-]=[N+]=NC[C@H]1O[C@@H](n2nc(-c3cccs3)c3c(Nc4ccccc4)ncnc32)[C@H](O)[C@@H]1O [compound 97] | – | – | – | pIC50 ([3]; 0.5 μM [U-14C]adenosine, pH 7.0, 37° C., 20 minutes, read-out: AK Inhibition (IC50)): 8.00; ED50 [4, 6]: > 5 mg/kg |

— patent US5721356A, “Orally active adenosine kinase inhibitors” (Gensia, Inc., priority 1995, dated 1998)
